# Measured values taken from US8647610B2, “Use of melanin biosynthesis inhibitors from korean ginseng and the cosmetic composition containing thereof for skin whitening” (Amorepacific Corporation, priority 2007, dated 2014).
# Assays:
# [1] = system: Mouse melanocytes (Mel-Ab cells); test: Melanin production inhibitory effect using mouse melanocytes (Dooley method); assay type: cell-based; conditions: 10 ppm of test substance for 3 days, absorbance at 400 nm
# human skin = test: Whitening effect on human skin after UVB-induced blackness; assay type: in vivo; conditions: 10 weeks, colorimeter
# Excerpt: An opaque tape having a perforated hole of a 1.5 cm-diameter was attached to the upper arm of each of 12 healthy men. Then, UV rays (UVB) were irradiated to each of the subjects at a dose 1.5-2 times higher than the minimal erythema dose, thus inducing skin's blackness.
# After the UV irradiation, a 1 wt % solution of each of the test samples (1,3-butyleneglycol: ethanol=7:3, as a vehicle) was applied to the skin of each subject. As negative and positive control groups, a 3 wt % solution of each of […] was applied to the skin of each subject. […] The skin color was measured with a colorimeter (Minolta, Japan) at a 1-week interval. Then, the difference (ΔL*) in skin color between the time point of application and the time point of completion of application of each sample was calculated according to the following equation 2, and the calculation results are shown in Table 2 below. Meanwhile, the whitening effect of each sample was evaluated by comparing ΔL* between the site applied with each sample and the control site.
# [2] = 1 wt % solution in 1,3-butyleneglycol:ethanol=7:3 applied to UVB-irradiated upper arm of 12 healthy men
Compound,Melanin production inhibitory rate (%) [1] [%],Lightless (ΔL*) of skin color (human skin; [2]),"inhibition at 10 ppm ([1]; Mus musculus, 72 h, read-out: Melanin production inhibitory rate (%)) [%]",Lightless (ΔL*) of skin color (human skin; 3 wt % solution (positive control) applied to UVB-irradiated upper arm of 12 healthy men)
20-O-β-D-glucopyranosyl-20(S)-protopanaxatriol [Example 1],35.1,1.60 ± 0.13,,
20-O-β-D-glucopyranosyl-20(S)-protopanaxatriol [Example 2],33.6,1.67 ± 0.17,,
20-O-β-D-glucopyranosyl-20(S)-protopanaxatriol [Example 3],34.2,1.71 ± 0.13,,
20-O-β-D-glucopyranosyl-20(S)-protopanaxatriol [Example 4],34.9,1.64 ± 0.21,,
20-O-β-D-glucopyranosyl-20(S)-protopanaxatriol [ginsenoside F1],,higher than 1.6,,
"O=c1cc(CO)occ1O [Kojic acid, reference compound]",,,30.5,1.56 ± 0.11
